Data published in patent US9187472B2 (AbbVie Inc., priority 2012, dated 2015).
pIC50: −log10 of the molar value.

Key:
PC3 cells = test: NAMPT Cell Proliferation Assay; type: cell-based; settings: Homo sapiens, PC-3, 120 h, 5 days incubation, cell viability by Cell Titer Glo
Procedure, shortened: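 IC50 values derive from sigmoidal dose-response fits of percent inhibition of PC3 viability, measured by luminescence after 5 days of compound treatment. Cells (500/well, RPMI containing 10% heat-inactivated FBS) are allowed to attach overnight, and compounds are tested at 10-fold dilutions between 10 μM and 1×10^−5 μM.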

NAMPT = NAMPT (Homo sapiens, UniProt P43490); test: TR-FRET Binding Assay of NAMPT with PRPP; settings: with 200 μM PRPP and 2.5 mM ATP; 2 nM NAMPT, 2 nM probe, 16 hours equilibration
Procedure, shortened: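 TR-FRET probe-displacement binding with 2 nM NAMPT, 2 nM probe and 1 nM Tb-anti-His antibody, run in the presence of 200 μM PRPP and 2.5 mM ATP at 2% DMSO. Equilibrated 16 hours before reading so test compounds could undergo enzymatic modification.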

[1] = target: NAMPT (human, recombinant, C-terminally His-tagged) (Homo sapiens, UniProt P43490); test: Time-Resolved Fluorescence Resonance Energy Transfer (TR-FRET) Binding Assay of NAMPT; settings: without substrates; 6.8 nM NAMPT, 200 nM probe, 3 hours equilibration
Procedure, shortened: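 11-pt half-log compound series; final 6.8 nM NAMPT, 200 nM OG488 nicotinamide-competitive probe, 1 nM Tb-anti-His Ab, 2% DMSO, HEPES pH 7.5/NaCl/MgCl2/DTT/glycerol buffer. 3 h RT equilibration. Em520/Em495 ratio (Ex 337 nm), control-normalized, 4-parameter fit → IC50.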

NAMPT (human, recombinant, C-terminally His-tagged), sequence (P43490 whole entry): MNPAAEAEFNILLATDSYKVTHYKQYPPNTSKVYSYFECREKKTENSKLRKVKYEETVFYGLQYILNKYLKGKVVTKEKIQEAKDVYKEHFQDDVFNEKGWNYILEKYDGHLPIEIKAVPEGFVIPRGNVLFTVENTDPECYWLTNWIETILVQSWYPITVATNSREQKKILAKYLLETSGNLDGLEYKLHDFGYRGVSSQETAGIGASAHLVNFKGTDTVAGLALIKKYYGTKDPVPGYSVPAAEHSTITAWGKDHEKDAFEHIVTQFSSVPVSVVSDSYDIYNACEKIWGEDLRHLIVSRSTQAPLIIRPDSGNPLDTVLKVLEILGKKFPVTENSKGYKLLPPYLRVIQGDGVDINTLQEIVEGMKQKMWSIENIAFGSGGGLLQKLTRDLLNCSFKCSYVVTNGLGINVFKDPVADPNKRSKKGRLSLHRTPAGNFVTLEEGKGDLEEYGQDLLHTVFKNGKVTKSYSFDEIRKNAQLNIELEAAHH
NAMPT, sequence (P43490 whole entry): as above

Compound	pIC50 (PC3 cells)	pIC50 (NAMPT)	pIC50 [1]
O=C(NCc1ccn2ccnc2c1)Nc1ccc(OC2CCN(C(=O)CC3CCOCC3)CC2)cc1 [Example 451, 1-(imidazo[1,2-a]pyridin-7-ylmethyl)-3-(4-{[1-(tetrahydro-2H-pyran-4-ylacetyl)piperidin-4-yl]oxy}phenyl)urea]	7.76	9.43	6.40
O=C(NCc1ccn2ccnc2c1)c1ccc(-c2cnn(CC3CCCO3)c2)o1 (stereo not drawn) [Example 476, N-(imidazo[1,2-a]pyridin-7-ylmethyl)-5-[1-(tetrahydrofuran-2-ylmethyl)-1H-pyrazol-4-yl]furan-2-carboxamide]	8.03	9.71	7.15
CC(C)CC(=O)N1CC(c2ccc(C(=O)NCc3ccn4ccnc4c3)cc2)C1 [Example 651, N-(imidazo[1,2-a]pyridin-7-ylmethyl)-4-[1-(3-methylbutanoyl)azetidin-3-yl]benzamide]	7.19	9.15	6.56
O=C(NCc1ccn2ccnc2c1)c1ccc(C2CN(C(=O)c3ccsc3)C2)cc1 [Example 668, N-(imidazo[1,2-a]pyridin-7-ylmethyl)-4-[1-(thiophen-3-ylcarbonyl)azetidin-3-yl]benzamide]	7.10	8.96	6.58
CC(C)OCCNC(=O)N(C[C@H]1CCCO1)c1ncc(C(=O)NCc2ccc3nccn3c2)s1 [Example 154, N-(imidazo[1,2-a]pyridin-6-ylmethyl)-2-({[2-(propan-2-yloxy)ethyl]carbamoyl}[(2R)-tetrahydrofuran-2-ylmethyl]amino)-1,3-thiazole-5-carboxamide]	8.18	8.59	6.71
O=C(NCc1ccn2ccnc2c1)c1ccc(C2CCN(C(=O)C3CCC(F)(F)CC3)CC2)cc1 [Example 441, 4-{1-[(4,4-difluorocyclohexyl)carbonyl]piperidin-4-yl}-N-(imidazo[1,2-a]pyridin-7-ylmethyl)benzamide]	8.14	9.49	6.47
O=C(NCc1ccn2ccnc2c1)Nc1ccc(C2CCN(C(=O)Cc3ccccc3)CC2)cc1 [Example 716, 1-(imidazo[1,2-a]pyridin-7-ylmethyl)-3-{4-[1-(phenylacetyl)piperidin-4-yl]phenyl}urea]	7.68	9.22	7.30
CC(C)CC1CCCN1C(=O)c1ccc(C(=O)NCc2ccn3ccnc3c2)s1 (stereo not drawn) [Example 824, N-(imidazo[1,2-a]pyridin-7-ylmethyl)-5-{[2-(2-methylpropyl)pyrrolidin-1-yl]carbonyl}thiophene-2-carboxamide]	7.91	9.25	6.93
O=C(NCc1ccn2ccnc2c1)Nc1ccc(C2CCN(C(=O)c3cccc(F)c3)CC2)cc1 [Example 720, 1-{4-[1-(3-fluorobenzoyl)piperidin-4-yl]phenyl}-3-(imidazo[1,2-a]pyridin-7-ylmethyl)urea]	8.24	9.74	7.44
COc1ccc(C(=O)N2CCC(c3ccc(C(=O)NCc4ccn5ccnc5c4)cc3)CC2)cc1 [Example 528, N-(imidazo[1,2-a]pyridin-7-ylmethyl)-4-[1-(4-methoxybenzoyl)piperidin-4-yl]benzamide]	7.62	9.56	6.90
Cc1noc(C)c1CC(=O)N(CC1CCCO1)c1ncc(C(=O)NCc2ccc3nccn3c2)s1 (stereo not drawn) [Example 128, 2-{[(3,5-dimethyl-1,2-oxazol-4-yl)acetyl](tetrahydrofuran-2-ylmethyl)amino}-N-(imidazo[1,2-a]pyridin-6-ylmethyl)-1,3-thiazole-5-carboxamide]	8.66	9.06	7.51
CCS(=O)(=O)N1CC(c2ccc(C(=O)NCc3ccn4ccnc4c3)cc2)C1 [Example 567, 4-[1-(ethylsulfonyl)azetidin-3-yl]-N-(imidazo[1,2-a]pyridin-7-ylmethyl)benzamide]	6.63	8.95	6.39
O=C(NCc1ccn2ccnc2c1)c1ccc(C2CCN(C(=O)c3ccc(Cl)cc3)CC2)cc1 [Example 529, 4-[1-(4-chlorobenzoyl)piperidin-4-yl]-N-(imidazo[1,2-a]pyridin-7-ylmethyl)benzamide]	6.64	9.55	6.61
O=C(NCc1ccn2ccnc2c1)Nc1ccc(OC2CCN(C(=O)[C@H]3CCCO3)CC2)cc1 [Example 448, 1-(imidazo[1,2-a]pyridin-7-ylmethyl)-3-[4-({1-[(2R)-tetrahydrofuran-2-ylcarbonyl]piperidin-4-yl}oxy)phenyl]urea]	7.17	9.75	6.76
CC(C)OC(=O)N1CCC(c2ccc(C(=O)NCc3ccn4ccnc4c3)s2)CC1 [Example 570, propan-2-yl-4-{5-[(imidazo[1,2-a]pyridin-7-ylmethyl)carbamoyl]thiophen-2-yl}piperidine-1-carboxylate]	8.13	9.12	7.15
O=C(NCc1ccn2ccnc2c1)Nc1ccc(C2CCN(C(=O)c3cc(F)cc(F)c3)CC2)cc1 [Example 724, 1-{4-[1-(3,5-difluorobenzoyl)piperidin-4-yl]phenyl}-3-(imidazo[1,2-a]pyridin-7-ylmethyl)urea]	7.20	9.00	6.79
CCCn1cc(-c2ccc(C(=O)NCc3ccn4ccnc4c3)s2)cn1 [Example 293, N-(imidazo[1,2-a]pyridin-7-ylmethyl)-5-(1-propyl-1H-pyrazol-4-yl)thiophene-2-carboxamide]	8.11	9.77	7.56
O=C(NCc1ccn2ccnc2c1)c1ccc(C2CCN(C(=O)c3ccccc3)C2)s1 (stereo not drawn) [Example 542, 5-(1-benzoylpyrrolidin-3-yl)-N-(imidazo[1,2-a]pyridin-7-ylmethyl)thiophene-2-carboxamide]	8.54	9.47	7.45
O=C(NCc1ccn2ccnc2c1)Nc1ccc(C2CCN(C(=O)C3COCCO3)CC2)cc1 (stereo not drawn) [Example 222, 1-{4-[1-(1,4-dioxan-2-ylcarbonyl)piperidin-4-yl]phenyl}-3-(imidazo[1,2-a]pyridin-7-ylmethyl)urea]	8.39	9.72	6.95
O=C(NCc1ccn2ccnc2c1)Nc1ccc(O[C@@H]2CCN(C(=O)c3cc(F)cc(F)c3)C2)cc1 [Example 694, 1-(4-{[(3R)-1-(3,5-difluorobenzoyl)pyrrolidin-3-yl]oxy}phenyl)-3-(imidazo[1,2-a]pyridin-7-ylmethyl)urea]	7.61	8.95	6.79
O=C(NCc1ccn2ccnc2c1)c1ccc(C2CCN(C(=O)CC(F)(F)F)CC2)s1 [Example 572, N-(imidazo[1,2-a]pyridin-7-ylmethyl)-5-[1-(3,3,3-trifluoropropanoyl)piperidin-4-yl]thiophene-2-carboxamide]	8.18	9.39	7.29
CC1CC1C(=O)N1CCC(c2ccc(C(=O)NCc3ccn4ccnc4c3)cc2)C1 (stereo not drawn) [Example 580, N-(imidazo[1,2-a]pyridin-7-ylmethyl)-4-{1-[(2-methylcyclopropyl)carbonyl]pyrrolidin-3-yl}benzamide]	6.67	9.10	5.83
Cn1cccc1CCC(=O)N(CC1CCCO1)c1ncc(C(=O)NCc2ccc3nccn3c2)s1 (stereo not drawn) [Example 189, N-(imidazo[1,2-a]pyridin-6-ylmethyl)-2-{[3-(1-methyl-1H-pyrrol-2-yl)propanoyl](tetrahydrofuran-2-ylmethyl)amino}-1,3-thiazole-5-carboxamide]	7.53	7.95	6.72
O=C(NCc1ccn2ccnc2c1)c1ccc(C2CN(S(=O)(=O)C3CC3)C2)cc1 [Example 568, 4-[1-(cyclopropylsulfonyl)azetidin-3-yl]-N-(imidazo[1,2-a]pyridin-7-ylmethyl)benzamide]	6.74	9.14	6.43
CC(C)C(=O)N1CCC(c2ncc(C(=O)NCc3ccn4ccnc4c3)s2)C1 (stereo not drawn) [Example 805, N-(imidazo[1,2-a]pyridin-7-ylmethyl)-2-[1-(2-methylpropanoyl)pyrrolidin-3-yl]-1,3-thiazole-5-carboxamide]	5.11	8.95	5.41
CC(C)CCNC(=O)c1ccc(C(=O)NCc2ccn3ccnc3c2)cc1 [Example 393, N-(imidazo[1,2-a]pyridin-7-ylmethyl)-N′-(3-methylbutyl)benzene-1,4-dicarboxamide]	< 5.00	8.36	< 5.00
CC(C)OCC(=O)N1CCC(c2ccc(C(=O)NCc3ccn4ccnc4c3)cc2)C1 (stereo not drawn) [Example 371, N-(imidazo[1,2-a]pyridin-7-ylmethyl)-4-{1-[(propan-2-yloxy)acetyl]pyrrolidin-3-yl}benzamide]	6.09	9.53	5.84
CC1(C(=O)N2CCC(c3ccc(C(=O)NCc4ccn5ccnc5c4)cc3)C2)CC1 (stereo not drawn) [Example 584, N-(imidazo[1,2-a]pyridin-7-ylmethyl)-4-{1-[(1-methylcyclopropyl)carbonyl]pyrrolidin-3-yl}benzamide]	7.23	9.12	6.09
